This is an account of results in paper PMC12459020, “Chemical Probes that Target a Dissociative LuxR-Type Quorum Sensing Receptor in Gram-Negative Bacteria” (ACS Chemical Biology, 2025).

Like-named read-outs stand apart in the source and are kept apart here.

In assay [1] the test system is LuxR. The settings on record: cited from earlier work; for LuxR antagonism: 5 µM compound against 5 µM OHHL, negative values indicate potential activators, ref 6 (SI; Palmer et al., 2011); for LuxR [%] (agonism, activation): compounds at 200 μM, luminescence in V. fischeri ES114 (ΔluxI), ref Palmer et al., 2011 (main ref 44, SI ref 6).
In assay [2] the test system is ExpR1. The settings on record: cited from earlier work; for ExpR1 antagonism: 5 µM compound against 5 µM OHHL, negative values indicate potential activators, ref 6 (SI; Palmer et al., 2011); for ExpR1 [%] (agonism, activation): compounds at 200 μM, cellulase activity in P. versatile AC5117, ref Palmer et al., 2011 (main ref 44, SI ref 6).
Assay [3] has as its target T1, EsaR (Pantoea stewartii subsp. stewartii, UniProt P54293).
T1 construct: expressed in transfected cells; host or cells: E. coli JLD271 (K12 ΔsdiA), arabinose-induced pJN105-esaR
In words: cell-based. The settings on record: 3.5 h; for activation at 100 µM: read-out: EsaR-activated (pesaS) [%] agonism; for inhibition at 100 µM: read-out: EsaR-activated (pesaS) antagonism. The text has this: (§1) EsaR transcriptional activation and repression were examined using E. coli and P. stewartii reporters (strains and plasmids listed in Table S1; see Methods section for assay details). […] We constructed reporters in E. coli based on previously reported EsaR reporters (Table S1). Each strain contained an EsaR expression plasmid (pJN105-esaR) and a reporter plasmid with either an EsaR-activated promoter (pesaS) or an EsaR-repressed promoter (pesaR) upstream of luxABCDE or GFP.
(§2) Gibson assembly was used to create all constructs. Plasmid pJN105-esaR was created by amplifying esaR from pAC-esaR and inserting it into pJN105. pesaSlux was created by inserting pesaS, amplified from pPesaR-AC:gfp, into the pCS-pesaRlux backbone. The pesaR promoter was amplified from pCS-pesaRlux and inserted into the pPesaR-AC:gfp backbone to create pesaR:GFP. P. stewartii reporter strains were created by transforming pesaR:GFP or pPesaR-AC:gfp into ESN51 by conjugation using E. coli S17 λpir as the donor strain. See SI for details of E. coli ExpR2 reporter construction.
(§3) Overnight cultures were diluted 1:10 in LB medium with appropriate antibiotics and grown at 37 °C (200 rpm) to an OD600 of 0.22–0.27 before induction with 4 mg mL^–1 arabinose. OD600 was measured by placing 200 μL of culture into a 96-well plate and reading optical density using the BioTek Synergy 2 plate reader. Assays were performed in technical triplicate in clear-bottom, white and clear-bottom, black 96-well microtiter plates (Corning Costar 3903 and 3904) for luminescence and fluorescence reporters, respectively. Compounds were dissolved in DMSO, and 2 μL of this stock, or DMSO as a negative control, was added to each well prior to adding 198 μL of induced culture. Plates were incubated at 37 °C (200 rpm) for 3.5 h. Each well was mixed by pipetting before reading OD600 and either luminescence or fluorescence. Single-point screens were performed with one or two biological replicates, and all dose–response curves were performed in biological triplicate. EC50 values were calculated based on a nonlinear regression of log(concentration) vs response (three parameters) using GraphPad Prism 9 software.

Assay [4] concerns the target T1, EsaR. The assay can be described thus: cell-based. The settings on record: 3.5 h; for activation at 100 µM: read-out: EsaR-repressed (pesaR) [%] agonism; for inhibition at 100 µM: read-out: EsaR-repressed (pesaR) antagonism.
Description: as §1, §2, §3

The test system of assay [5] is ExpR2. The settings on record: cited from earlier work; for ExpR2 antagonism (percent inhibition): 5 µM compound against 5 µM OHHL, negative values indicate potential activators, ref 6 (SI; Palmer et al., 2011); for ExpR2 [%] (agonism, percent activation): compounds at 200 μM, cellulase activity in P. versatile AC5099, ref Palmer et al., 2011 (main ref 44, SI ref 6).

T1 sequence (P54293 whole entry): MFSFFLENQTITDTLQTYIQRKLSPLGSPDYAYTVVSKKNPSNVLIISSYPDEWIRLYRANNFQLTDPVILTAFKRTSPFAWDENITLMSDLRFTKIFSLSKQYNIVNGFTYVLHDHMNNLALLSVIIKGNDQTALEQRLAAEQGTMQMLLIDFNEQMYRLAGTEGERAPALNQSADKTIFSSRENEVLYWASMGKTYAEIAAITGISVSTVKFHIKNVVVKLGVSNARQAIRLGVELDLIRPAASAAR

With `O=C(Cc1ccccc1F)N[C@H]1CCOC1=O` [C4], in assay [1], the LuxR antagonism was 49% and the “LuxR [%] (agonism, activation)” value was 2%. In addition, in assay [2], the ExpR1 antagonism is 44% and the “ExpR1 [%] (agonism, activation)” value was 8%. In assay [3], the activation at 100 µM is -1% and the inhibition at 100 µM is -9%. For the same molecule, in assay [4], the activation at 100 µM was -3% and the inhibition at 100 µM was 15%. Also, in assay [5], the “ExpR2 antagonism (percent inhibition)” value is 27% and the “ExpR2 [%] (agonism, percent activation)” value is recorded as 24%.
As for `O=C(/C=C/c1ccccc1)N[C@H]1CCOC1=O` [B10], in assay [1], the LuxR antagonism is 48% and the “LuxR [%] (agonism, activation)” value is on record as 3%. Also, in assay [2], the ExpR1 antagonism is listed as 57% and the “ExpR1 [%] (agonism, activation)” value is recorded as 4%. Further, in assay [3], the activation at 100 µM worked out at 12% and the inhibition at 100 µM is -6%. In assay [4], the activation at 100 µM was -2% and the inhibition at 100 µM worked out at 17%. In addition, in assay [5], the “ExpR2 antagonism (percent inhibition)” value was 49% and the “ExpR2 [%] (agonism, percent activation)” value is on record as 18%.
For `O=C(Cc1ccc(F)cc1)N[C@H]1CCOC1=O` [C2], in assay [1], the LuxR antagonism is on record as 59% and the “LuxR [%] (agonism, activation)” value was 2%. In addition, in assay [2], the ExpR1 antagonism is 64% and the “ExpR1 [%] (agonism, activation)” value was 4%. For the same molecule, in assay [3], the activation at 100 µM was found to be 4% and the inhibition at 100 µM is -14%. Further, in assay [4], the activation at 100 µM is -2% and the inhibition at 100 µM is -50%. Further, in assay [5], the “ExpR2 antagonism (percent inhibition)” value is 23% and the “ExpR2 [%] (agonism, percent activation)” value was 14%.
As to `COc1cccc(CC(=O)N[C@H]2CCOC2=O)c1` [E2], in assay [1], the LuxR antagonism is given as 71% and the “LuxR [%] (agonism, activation)” value was 7%. Moreover, in assay [2], the ExpR1 antagonism was 68% and the “ExpR1 [%] (agonism, activation)” value is 4%. In assay [3], the activation at 100 µM worked out at 4% and the inhibition at 100 µM is 0%. Further, in assay [4], the activation at 100 µM is 3% and the inhibition at 100 µM is -42%. In assay [5], the “ExpR2 antagonism (percent inhibition)” value was 59% and the “ExpR2 [%] (agonism, percent activation)” value is 24%.
For the molecule `O=C(Cc1ccc([N+](=O)[O-])cc1)N[C@H]1CCOC1=O` [C13], in assay [1], the LuxR antagonism is on record as 47% and the “LuxR [%] (agonism, activation)” value is listed as 24%. Also, in assay [2], the ExpR1 antagonism is listed as 44% and the “ExpR1 [%] (agonism, activation)” value is recorded as 15%. Moreover, in assay [3], the activation at 100 µM was found to be 14% and the inhibition at 100 µM was -29%. Besides, in assay [4], the activation at 100 µM was 14% and the inhibition at 100 µM came to 12%. Moreover, in assay [5], the “ExpR2 antagonism (percent inhibition)” value is given as 32% and the “ExpR2 [%] (agonism, percent activation)” value is on record as 24%.
Regarding `O=C(CCc1ccccc1)N[C@H]1CCOC1=O` [B9], in assay [1], the LuxR antagonism is recorded as 44% and the “LuxR [%] (agonism, activation)” value is 3%. In addition, in assay [2], the ExpR1 antagonism is listed as 48% and the “ExpR1 [%] (agonism, activation)” value is given as 4%. In assay [3], the activation at 100 µM amounted to 23% and the inhibition at 100 µM is -24%. Also, in assay [4], the activation at 100 µM worked out at 6% and the inhibition at 100 µM is -10%. In assay [5], the “ExpR2 antagonism (percent inhibition)” value is 37% and the “ExpR2 [%] (agonism, percent activation)” value is 12%.
Regarding `CCCCCCCCCCCC(=O)CC(=O)N[C@H]1CCOC1=O` [OtDHL, reference compound], in assay [1], the LuxR antagonism is given as 5% and the “LuxR [%] (agonism, activation)” value is 4%. For the same molecule, in assay [2], the ExpR1 antagonism is given as 4% and the “ExpR1 [%] (agonism, activation)” value is listed as 1%. Also, in assay [3], the activation at 100 µM is 16% and the inhibition at 100 µM is -41%. Further, in assay [4], the activation at 100 µM is 13% and the inhibition at 100 µM is -53%. In addition, in assay [5], the “ExpR2 antagonism (percent inhibition)” value is 7% and the “ExpR2 [%] (agonism, percent activation)” value is 9%.
